Literature values, collected in US6884429B2, “Medical devices incorporating deuterated rapamycin for controlled delivery thereof” (Isotechnika International Inc., priority 1997, dated 2005).

Conditions: plasma and low-, and neuteral -pH buffers at 37° C.

half-life of degradation in solution: < 10 h
SMILES: CO[C@H]1C[C@@H]2CC[C@@H](C)[C@@](O)(O2)C(=O)C(=O)N2CCCC[C@H]2C(=O)O[C@H]([C@H](C)C[C@@H]2CC[C@@H](O)[C@H](OC)C2)CC(=O)[C@H](C)/C=C(\C)[C@@H](O)[C@@H](OC)C(=O)[C@H](C)C[C@H](C)/C=C/C=C/C=C/1C [Rapamycin]
